Patent US20220119354A1, “DIAMINO-SUBSTITUTED PYRIDINES AND PYRIMIDINES AS HERBICIDES” (FMC Corporation, priority 2019, published 2022)

Key:
Format in all cases: in vivo
[1] = system: barnyardgrass (Echinochloa crus-galli); experiment: Test A preemergence, barnyardgrass; conditions: 0 to 100 scale
How it was run: (§1)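 Steps: plant seeds in loam/sand; spray soil (pre) or seedlings at 1–2 leaves, 2–10 cm (post) with compound in solvent plus surfactant; keep in greenhouse ~10 d; score injury visually against untreated controls, 0–100.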

[2] = system: kochia (Kochia scoparia); experiment: Test A preemergence, kochia; conditions: 0 to 100 scale
How it was run: as §1

[3] = system: ragweed (common ragweed, Ambrosia elatior); experiment: Test A preemergence, ragweed; conditions: 0 to 100 scale
How it was run: as §1

[4] = system: ryegrass, Italian (Lolium multiflorum); experiment: Test A preemergence, Italian ryegrass; conditions: 0 to 100 scale
How it was run: as §1

[5] = system: foxtail, giant (Setaria faberii); experiment: Test A preemergence, giant foxtail; conditions: 0 to 100 scale
How it was run: as §1

[6] = system: pigweed (Amaranthus retroflexus); experiment: Test A preemergence, pigweed; conditions: 0 to 100 scale
How it was run: as §1

[7] = system: barnyardgrass (Echinochloa crus-galli); experiment: Test A postemergence, barnyardgrass; conditions: 0 to 100 scale
How it was run: as §1

[8] = system: kochia (Kochia scoparia); experiment: Test A postemergence, kochia; conditions: 0 to 100 scale
How it was run: as §1

[9] = system: ragweed (common ragweed, Ambrosia elatior); experiment: Test A postemergence, ragweed; conditions: 0 to 100 scale
How it was run: as §1

[10] = system: ryegrass, Italian (Lolium multiflorum); experiment: Test A postemergence, Italian ryegrass; conditions: 0 to 100 scale
How it was run: as §1

[11] = system: foxtail, giant (Setaria faberii); experiment: Test A postemergence, giant foxtail; conditions: 0 to 100 scale
How it was run: as §1

[12] = system: pigweed (Amaranthus retroflexus); experiment: Test A postemergence, pigweed; conditions: 0 to 100 scale
How it was run: as §1

[13] = system: wheat (Triticum aestivum); experiment: Test A postemergence, wheat; conditions: 0 to 100 scale
How it was run: as §1

[14] = system: corn (Zea mays); experiment: Test A postemergence, corn; conditions: 0 to 100 scale
How it was run: as §1

[15] = system: blackgrass (Alopecurus myosuroides); experiment: Test A postemergence, blackgrass; conditions: 0 to 100 scale
How it was run: as §1

[16] = system: galium (catchweed bedstraw, Galium aparine); experiment: Test A postemergence, galium; conditions: 0 to 100 scale
How it was run: as §1

[17] = system: rice (Oryza sativa); experiment: Test B flooded paddy test, rice; conditions: Flood, 250 g ai/ha, applied to paddy water, 2-leaf stage, visual evaluation after 13 to 15 d
How it was run: (§2)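 Each response is a visual 0–100 rating made against untreated controls, where 0 is no effect and 100 is complete control; a dash marks no result. Compound was dosed into 3 cm paddy water over 2-leaf plants, assessed after 13 to 15 d.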

[18] = system: sedge, umbrella (small-flower umbrella sedge, Cyperus difformis); experiment: Test B flooded paddy test, umbrella sedge; conditions: Flood, 250 g ai/ha, applied to paddy water, 2-leaf stage, visual evaluation after 13 to 15 d
How it was run: as §2

[19] = system: ducksalad (Heteranthera limosa); experiment: Test B flooded paddy test, ducksalad; conditions: Flood, 250 g ai/ha, applied to paddy water, 2-leaf stage, visual evaluation after 13 to 15 d
How it was run: as §2

[20] = system: barnyardgrass (Echinochloa crus-galli); experiment: Test B flooded paddy test, barnyardgrass; conditions: Flood, 250 g ai/ha, applied to paddy water, 2-leaf stage, visual evaluation after 13 to 15 d
How it was run: as §2

Compound	Plant response rating, Barnyardgrass ([1]; 125 g ai/ha)	Plant response rating, Barnyardgrass ([1]; 500 g ai/ha)	Plant response rating, Kochia ([2]; 125 g ai/ha)	Plant response rating, Kochia ([2]; 500 g ai/ha)	Plant response rating, Ragweed ([3]; 125 g ai/ha)	Plant response rating, Ragweed ([3]; 500 g ai/ha)	Plant response rating, Ryegrass, Italian ([4]; 125 g ai/ha)	Plant response rating, Ryegrass, Italian ([4]; 500 g ai/ha)	Plant response rating, Foxtail, Giant ([5]; 125 g ai/ha)	Plant response rating, Foxtail, Giant ([5]; 500 g ai/ha)	Plant response rating, Pigweed ([6]; 125 g ai/ha)	Plant response rating, Pigweed ([6]; 500 g ai/ha)	Plant response rating, Barnyardgrass ([7]; 125 g ai/ha)	Plant response rating, Barnyardgrass ([7]; 500 g ai/ha)	Plant response rating, Kochia ([8]; 125 g ai/ha)	Plant response rating, Kochia ([8]; 500 g ai/ha)	Plant response rating, Ragweed ([9]; 125 g ai/ha)	Plant response rating, Ragweed ([9]; 500 g ai/ha)	Plant response rating, Ryegrass, Italian ([10]; 125 g ai/ha)	Plant response rating, Ryegrass, Italian ([10]; 500 g ai/ha)	further results
CC[C@H](COc1cc(C)cc(C)c1)Nc1ncc(C(F)(F)F)c(N)n1 [Compound 27]	10	90	0	40	70	90	30	80	20	90	10	80	0	20	0	70	20	90	0	0	Plant response rating, Foxtail, Giant ([11]; 125 g ai/ha): 0; Plant response rating, Foxtail, Giant ([11]; 500 g ai/ha): 20; Plant response rating, Pigweed ([12]; 125 g ai/ha): 60; Plant response rating, Pigweed ([12]; 500 g ai/ha): 90; Plant response rating, Wheat ([13]; 125 g ai/ha): 0; Plant response rating, Wheat ([13]; 500 g ai/ha): 20; Plant response rating, Corn ([14]; 125 g ai/ha): 0; Plant response rating, Corn ([14]; 500 g ai/ha): 20; Plant response rating, Blackgrass ([15]; 125 g ai/ha): 10; Plant response rating, Blackgrass ([15]; 500 g ai/ha): 50; Plant response rating, Galium ([16]; 125 g ai/ha): 90; Plant response rating, Galium ([16]; 500 g ai/ha): 90; Plant response rating, Rice (0 to 100 scale, 0 is no effect, 100 is complete control) [17]: 0; Plant response rating, Sedge, Umbrella (0 to 100 scale, 0 is no effect, 100 is complete control) [18]: 50; Plant response rating, Ducksalad (0 to 100 scale, 0 is no effect, 100 is complete control) [19]: 0; Plant response rating, Barnyardgrass (0 to 100 scale, 0 is no effect, 100 is complete control) [20]: 0
C[C@@H](Nc1ncc(C(F)(F)F)c(N)n1)c1cc2ccc(Cl)cc2o1 [Compound 29]	0	90	0	80	20	80	20	70	60	90	90	100	20	80	50	90	20	90	0	10	Plant response rating, Foxtail, Giant ([11]; 125 g ai/ha): 0; Plant response rating, Foxtail, Giant ([11]; 500 g ai/ha): 50; Plant response rating, Pigweed ([12]; 125 g ai/ha): 100; Plant response rating, Pigweed ([12]; 500 g ai/ha): 100; Plant response rating, Wheat ([13]; 125 g ai/ha): 0; Plant response rating, Wheat ([13]; 500 g ai/ha): 0; Plant response rating, Corn ([14]; 125 g ai/ha): 0; Plant response rating, Corn ([14]; 500 g ai/ha): 10; Plant response rating, Blackgrass ([15]; 125 g ai/ha): 0; Plant response rating, Blackgrass ([15]; 500 g ai/ha): 10; Plant response rating, Galium ([16]; 125 g ai/ha): 80; Plant response rating, Galium ([16]; 500 g ai/ha): 100; Plant response rating, Rice (0 to 100 scale, 0 is no effect, 100 is complete control) [17]: 0; Plant response rating, Sedge, Umbrella (0 to 100 scale, 0 is no effect, 100 is complete control) [18]: 0; Plant response rating, Ducksalad (0 to 100 scale, 0 is no effect, 100 is complete control) [19]: 0; Plant response rating, Barnyardgrass (0 to 100 scale, 0 is no effect, 100 is complete control) [20]: 0
